Laboratory results as given in patent US11254695B2, “Soluble C5aR antagonists” (CHEMOCENTRYX, INC., priority 2016, dated 2022).
In brackets after ≈: the same amount, converted by molar mass. Where a name gives a salt, the structure may show the parent alone.

Assay: Solubility in Milli-Q water, examined with naked eye
Assay type: physicochemical
Details: thermodynamic from solid; arbitrary amount in 1 mL Milli-Q water, room temperature, clear solution by naked eye; not the maximum solubility; read-out: Solubility in H2O
Text: Experiments with no visible particles by naked eye were considered as clear solutions. It is important to note that the reported solubility information is not the maximum solubility of the compounds in water.

Compound	solubility
Cc1ccc(NC(=O)[C@H]2CCCN(C(=O)c3c(C)cccc3F)[C@H]2c2ccc(N(C3CCCC3)P(=O)(O)N[C@@H](Cc3c[nH]cn3)C(=O)O)cc2)cc1C(F)(F)F [Example 3, 2-[[[N-cyclopentyl-4-[(2R,3S)-1-(2-fluoro-6-methyl-benzoyl)-3-[[4-methyl-3-(trifluoromethyl)phenyl]carbamoyl]-2-piperidyl]anilino]-hydroxy-phosphoryl]amino]-3-(1H-imidazol-4-yl)propanoic acid]	5000 µg/mL (≈ 6.26 mM)
Cc1ccc(NC(=O)[C@H]2CCCN(C(=O)c3c(C)cccc3F)[C@H]2c2ccc(N(C(=O)CN)C3CCCC3)cc2)cc1C(F)(F)F [Example 2, (2R,3S)-2-[4-[(2-aminoacetyl)-cyclopentyl-amino]phenyl]-1-(2-fluoro-6-methyl-benzoyl)-N-[4-methyl-3-(trifluoromethyl)phenyl]piperidine-3-carboxamide]	> 5000 µg/mL
Cc1ccc(NC(=O)[C@H]2CCCN(C(=O)c3c(C)cccc3F)[C@H]2c2ccc(N(C(=O)CN(C)C)C3CCCC3)cc2)cc1C(F)(F)F [Example 1, (2R,3S)-2-[4-[cyclopentyl-[2-(dimethylamino)acetyl]amino]phenyl]-1-(2-fluoro-6-methyl-benzoyl)-N-[4-methyl-3-(trifluoromethyl)phenyl]piperidine-3-carboxamide]	> 10000 µg/mL
Cc1ccc(NC(=O)[C@H]2CCCN(C(=O)c3c(C)cccc3F)[C@H]2c2ccc(N(C(=O)OCc3ccc(OP(=O)(O)O)cc3)C3CCCC3)cc2)cc1C(F)(F)F [Example 8, (4-phosphonooxyphenyl)methyl N-cyclopentyl-N-[4-[(2R,3S)-1-(2-fluoro-6-methyl-benzoyl)-3-[[4-methyl-3-(trifluoromethyl)phenyl]carbamoyl]-2-piperidyl]phenyl]carbamate]	1000 µg/mL (≈ 1.23 mM)
Cc1ccc(NC(=O)[C@H]2CCCN(C(=O)c3c(C)cccc3F)[C@H]2c2ccc(N(C(=O)OCOC(=O)/C=C/C(=O)O)C3CCCC3)cc2)cc1C(F)(F)F [Example 10, (E)-4-[[cyclopentyl-[4-[(2R,3S)-1-(2-fluoro-6-methyl-benzoyl)-3-[[4-methyl-3-(trifluoromethyl)phenyl]carbamoyl]-2-piperidyl]phenyl]carbamoyl]oxymethoxy]-4-oxo-but-2-enoic acid]	1000 µg/mL (≈ 1.33 mM)
Cc1ccc(NC(=O)[C@H]2CCCN(C(=O)c3c(C)cccc3F)[C@H]2c2ccc(N(C(=O)CNC(=O)CN)C3CCCC3)cc2)cc1C(F)(F)F [Example 5, (2R,3S)-2-[4-[[2-[(2-aminoacetyl)amino]acetyl]-cyclopentyl-amino]phenyl]-1-(2-fluoro-6-methyl-benzoyl)-N-[4-methyl-3-(trifluoromethyl)phenyl]piperidine-3-carboxamide]	10000 µg/mL (≈ 14.4 mM)
Cc1ccc(NC(=O)[C@H]2CCCN(C(=O)c3c(C)cccc3F)[C@H]2c2ccc(N(C3CCCC3)P(=O)(O)OC(=O)C(C)C)cc2)cc1C(F)(F)F [Example 4, N-cyclopentyl-N-[4-[(2R,3S)-1-(2-fluoro-6-methyl-benzoyl)-3-[[4-methyl-3 (trifluoromethyl)phenyl]carbamoyl]-2-piperidyl]phenyl]-(2-methylpropanoyloxy)phosphonamidic acid]	1000 µg/mL (≈ 1.37 mM)
Cc1ccc(NC(=O)[C@H]2CCCN(C(=O)c3c(C)cccc3F)[C@H]2c2ccc(N(C(=O)OCOC(=O)[C@@H](N)C(C)C)C3CCCC3)cc2)cc1C(F)(F)F [Example 7, [cyclopentyl-[4-[(2R,3S)-1-(2-fluoro-6-methyl-benzoyl)-3-[[4-methyl-3-(trifluoromethyl)phenyl]carbamoyl]-2-piperidyl]phenyl]carbamoyl]oxymethyl (2S)-2-amino-3-methyl-butanoate]	1000 to 2000 µg/mL (≈ 1.32 to 2.65 mM)
Cc1ccc(NC(=O)[C@H]2CCCN(C(=O)c3c(C)cccc3F)[C@H]2c2ccc(N(C(=O)CNC(=O)[C@@H](N)CCCN)C3CCCC3)cc2)cc1C(F)(F)F [Example 6, (2R,3S)-2-[4-[cyclopentyl-[2-[[(2S)-2,5-diaminopentanoyl]amino]acetyl]amino]phenyl]-1-(2-fluoro-6-methyl-benzoyl)-N-[4-methyl-3-(trifluoromethyl)phenyl]piperidine-3-carboxamide dihydrochloride]	5000 µg/mL

Continued, values first:

solubility	Compound
15000 µg/mL	Cc1cccc(F)c1C(=O)N1CCC[C@H](C(=O)Nc2ccc(COCOP(=O)(O)O)c(C(F)(F)F)c2)[C@@H]1c1ccc(NC2CCCC2)cc1 [Example 22, [4-[[(2R,3S)-2-[4-(cyclopentylamino)phenyl]-1-(2-fluoro-6-methyl-benzoyl)piperidine-3-carbonyl]amino]-2-(trifluoromethyl)phenyl]methoxymethyl dihydrogen phosphate]
10000 µg/mL (≈ 14 mM)	Cc1cccc(F)c1C(=O)N1CCC[C@H](C(=O)Nc2ccc(COC(=O)CNC(=O)CN)c(C(F)(F)F)c2)[C@@H]1c1ccc(NC2CCCC2)cc1 [Example 13]
5000 µg/mL (≈ 6.63 mM)	Cc1cccc(F)c1C(=O)N1CCC[C@H](C(=O)Nc2ccc(COC(=O)[C@@H](NC(=O)CN)C(C)C)c(C(F)(F)F)c2)[C@@H]1c1ccc(NC2CCCC2)cc1 [Example 15, [4-[[(2R,3S)-2-[4-(cyclopentylamino)phenyl]-1-(2-fluoro-6-methyl-benzoyl)piperidine-3-carbonyl]amino]-2-(trifluoromethyl)phenyl]methyl (2S)-2-[(2-aminoacetyl)amino]-3-methyl-butanoate]
5000 µg/mL (≈ 6.28 mM)	Cc1cccc(F)c1C(=O)N1CCC[C@H](C(=O)Nc2ccc(COC(=O)[C@@H](NC(=O)[C@@H](N)C(C)C)C(C)C)c(C(F)(F)F)c2)[C@@H]1c1ccc(NC2CCCC2)cc1 [Example 16, [4-[[(2R,3S)-2-[4-(cyclopentylamino)phenyl]-1-(2-fluoro-6-methyl-benzoyl)piperidine-3-carbonyl]amino]-2-(trifluoromethyl)phenyl]methyl (2S)-2-[[(2S)-2-amino-3-methyl-butanoyl]amino]-3-methyl-butanoate]
> 1000 µg/mL	Cc1cccc(F)c1C(=O)N1CCC[C@H](C(=O)Nc2ccc(COC(=O)c3cccc(CN4CCN(C)CC4)c3)c(C(F)(F)F)c2)[C@@H]1c1ccc(NC2CCCC2)cc1 [Example 23, [4-[[(2R,3S)-2-[4-(cyclopentylamino)phenyl]-1-(2-fluoro-6-methyl-benzoyl)piperidine-3-carbonyl]amino]-2-(trifluoromethyl)phenyl]methyl 3-[(4-methylpiperazin-1-yl)methyl]benzoate]
> 5000 µg/mL	Cc1ccc(N(COP(=O)(O)O)C(=O)[C@H]2CCCN(C(=O)c3c(C)cccc3F)[C@H]2c2ccc(NC3CCCC3)cc2)cc1C(F)(F)F [Example 11, [N-[(2R,3S)-2-[4-(cyclopentylamino)phenyl]-1-(2-fluoro-6-methyl-benzoyl)piperidine-3-carbonyl]-4-methyl-3-(trifluoromethyl)anilino]methyl dihydrogen phosphate]
> 10000 µg/mL	Cc1cccc(F)c1C(=O)N1CCC[C@H](C(=O)Nc2ccc(COC(=O)CN)c(C(F)(F)F)c2)[C@@H]1c1ccc(NC2CCCC2)cc1 [Example 20, [4-[[(2R,3S)-2-[4-(cyclopentylamino)phenyl]-1-(2-fluoro-6-methyl-benzoyl)piperidine-3-carbonyl]amino]-2-(trifluoromethyl)phenyl]methyl 2-aminoacetate]
5000 µg/mL (≈ 6.63 mM)	Cc1cccc(F)c1C(=O)N1CCC[C@H](C(=O)Nc2ccc(COC(=O)CNC(=O)[C@@H](N)C(C)C)c(C(F)(F)F)c2)[C@@H]1c1ccc(NC2CCCC2)cc1 [Example 14, [4-[[(2R,3S)-2-[4-(cyclopentylamino)phenyl]-1-(2-fluoro-6-methyl-benzoyl)piperidine-3-carbonyl]amino]-2-(trifluoromethyl)phenyl]methyl 2-[[(2S)-2-amino-3-methyl-butanoyl]amino]acetate]
> 10000 µg/mL	Cc1ccc(NC(=O)[C@H]2CCCN(C(=O)c3c(C)cccc3F)[C@H]2c2ccc(N(C(=O)OCOP(=O)(O)O)C3CCCC3)cc2)cc1C(F)(F)F [Example 9, phosphonooxymethyl N-cyclopentyl-N-[4-[(2R,3S)-1-(2-fluoro-6-methyl-benzoyl)-3-[[4-methyl-3-(trifluoromethyl)phenyl]carbamoyl]-2-piperidyl]phenyl]carbamate]
> 5000 µg/mL	Cc1cccc(F)c1C(=O)N1CCC[C@H](C(=O)Nc2ccc(COC(=O)[C@H](C)N)c(C(F)(F)F)c2)[C@@H]1c1ccc(NC2CCCC2)cc1 [Example 18, [4-[[(2R,3S)-2-[4-(cyclopentylamino)phenyl]-1-(2-fluoro-6-methyl-benzoyl)piperidine-3-carbonyl]amino]-2-(trifluoromethyl)phenyl]methyl (2S)-2-aminopropanoate]
4000 µg/mL (≈ 5.74 mM)	Cc1cccc(F)c1C(=O)N1CCC[C@H](C(=O)Nc2ccc(COC(=O)C(N)C(C)C)c(C(F)(F)F)c2)[C@@H]1c1ccc(NC2CCCC2)cc1 (stereo in doubt) [Example 17, [4-[[(2R,3S)-2-[4-(cyclopentylamino)phenyl]-1-(2-fluoro-6-methyl-benzoyl)piperidine-3-carbonyl]amino]-2-(trifluoromethyl)phenyl]methyl (2R)-2-amino-3-methyl-butanoate]

Assay: Solubility of saturated solutions in D.I. water, quantified by LC-MS
Assay type: physicochemical
Details: thermodynamic from solid, saturated solution in D.I. water, shaken 3 hours at room temperature, average of four replicates
Procedure: Saturated solutions of compound were freshly prepared by adding 1 mL D.I. water into 0.8 mg compound powder. After shaking at room temperature for 3 hours, the samples were centrifuged under 14000 rpm for 15 minutes twice. The supernatants were carefully taken out and quantified by LC-MS. Solubility: 1.2±0.2 μg/mL (average of four replicates).

solubility at 3 h	Compound
1.2 ± 0.2 µg/mL (≈ 0.00201 mM)	Cc1cccc(F)c1C(=O)N1CCC[C@H](C(=O)Nc2ccc(CO)c(C(F)(F)F)c2)[C@@H]1c1ccc(NC2CCCC2)cc1

Assay: physchem
Assay type: physicochemical
Details: 25 °C, pH 7, aqueous buffer, thermodynamic from solid
Procedure: Saturated solutions of compound in pH 7 buffers were left overnight at room temperature (25° C.) before they were centrifuged. The supernatants were taken out and quantified. Solubility: 0.053 μg/mL.

solubility	Compound
0.053 µg/mL (≈ 9.11e-05 mM)	Cc1ccc(NC(=O)[C@H]2CCCN(C(=O)c3c(C)cccc3F)[C@H]2c2ccc(NC3CCCC3)cc2)cc1C(F)(F)F
